Reference: ChEMBL document CHEMBL4715916, “Synthesis and biological evaluation of a ring analogs of the selective CB2 inverse agonist SMM-189” (Bioorg Med Chem, 2021)
Activity calls are given as the source filed them. The calls are words filed in the database; no cut-off is given here.

Assays:
[1] = molecular target: T1, Cannabinoid receptor 2 (Homo sapiens, UniProt P34972); test: Inverse agonist activity at human recombinant cannabinoid CB2 receptor expressed in HEK cells transfected with CNG assessed as increase in cAMP level measured up to 1 hr by ACTOne membrane potential dye based assay relative to control; format: functional, cell-based; conditions: time hrs <=1
[2] = molecular target: T2, Cannabinoid receptor 1 (Homo sapiens, UniProt P21554); test: Inverse agonist activity at human recombinant cannabinoid CB1 receptor expressed in HEK cells transfected with CNG assessed as increase in cAMP level measured up to 1 hr by ACTOne membrane potential dye based assay relative to control; format: functional, cell-based; conditions: time hrs <=1
[3] = molecular target: T1, Cannabinoid receptor 2; test: Inverse agonist activity at cannabinoid CB2 receptor in human U2OS cells assessed as emission ratio using CCF4/AM as substrate preincubated for 5 hrs followed by substrate addition and measured after 2 hrs by Tango assay; format: cell-based; conditions: time 7.0 hrs; further: test concentration or dose not given here
[4] = molecular target: T2, Cannabinoid receptor 1; test: Inverse agonist activity at human recombinant cannabinoid CB1 receptor expressed in HEK cells transfected with CNG assessed as increase in cAMP level measured up to 1 hr by ACTOne membrane potential dye based assay; format: functional, cell-based; conditions: time hrs <=1
[5] = molecular target: T1, Cannabinoid receptor 2; test: Inverse agonist activity at cannabinoid CB2 receptor in human U2OS cells assessed as induction of beta-arrestin recruitment using CCF4/AM as substrate preincubated for 5 hrs followed by substrate addition and measured after 2 hrs by Tango assay; format: cell-based
[6] = molecular target: T2, Cannabinoid receptor 1; test: Inverse agonist activity at cannabinoid CB1 receptor in human U2OS cells assessed as induction of beta-arrestin recruitment using CCF4/AM as substrate preincubated for 5 hrs followed by substrate addition and measured after 2 hrs by Tango assay; format: cell-based; conditions: time 7.0 hrs
[7] = molecular target: T1, Cannabinoid receptor 2; test: Inverse agonist activity at human recombinant cannabinoid CB2 receptor expressed in HEK cells transfected with CNG assessed as increase in cAMP level measured up to 1 hr by ACTOne membrane potential dye based assay; format: functional, cell-based
[8] = molecular target: T2, Cannabinoid receptor 1; test: Displacement of [3H]-CP55940 from human recombinant cannabinoid CB1 receptor expressed in HEK cell membranes incubated for 1.5 hrs by liquid scintillation counting method; design: species or system Cell membrane
[9] = molecular target: T2, Cannabinoid receptor 1; test: Inverse agonist activity at cannabinoid CB1 receptor in human U2OS cells assessed as emission ratio using CCF4/AM as substrate preincubated for 5 hrs followed by substrate addition and measured after 2 hrs by Tango assay; format: cell-based; conditions: time 7.0 hrs
[10] = organism: Homo sapiens; test: Selectivity ratio of Ki for displacement of [3H]-CP55940 from human recombinant cannabinoid CB1 receptor expressed in HEK cell membranes to displacement of [3H]-CP55940 from human recombinant cannabinoid CB2 receptor expressed in HEK cell membranes
[11] = molecular target: T1, Cannabinoid receptor 2; test: Displacement of [3H]-CP55940 from human recombinant cannabinoid CB2 receptor expressed in HEK cell membranes incubated for 1.5 hrs by liquid scintillation counting method; design: species or system Cell membrane

T1 sequence (P34972 whole entry): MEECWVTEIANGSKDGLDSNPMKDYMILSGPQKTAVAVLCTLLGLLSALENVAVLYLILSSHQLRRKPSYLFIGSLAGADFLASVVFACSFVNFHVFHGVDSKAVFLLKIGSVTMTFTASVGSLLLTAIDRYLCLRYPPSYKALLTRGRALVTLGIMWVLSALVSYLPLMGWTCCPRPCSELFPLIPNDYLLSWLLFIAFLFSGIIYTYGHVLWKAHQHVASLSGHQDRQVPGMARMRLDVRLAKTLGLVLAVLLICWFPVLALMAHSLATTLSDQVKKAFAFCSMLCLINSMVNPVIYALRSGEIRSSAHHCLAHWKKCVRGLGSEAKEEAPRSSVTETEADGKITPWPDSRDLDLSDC
T2 sequence (P21554 whole entry): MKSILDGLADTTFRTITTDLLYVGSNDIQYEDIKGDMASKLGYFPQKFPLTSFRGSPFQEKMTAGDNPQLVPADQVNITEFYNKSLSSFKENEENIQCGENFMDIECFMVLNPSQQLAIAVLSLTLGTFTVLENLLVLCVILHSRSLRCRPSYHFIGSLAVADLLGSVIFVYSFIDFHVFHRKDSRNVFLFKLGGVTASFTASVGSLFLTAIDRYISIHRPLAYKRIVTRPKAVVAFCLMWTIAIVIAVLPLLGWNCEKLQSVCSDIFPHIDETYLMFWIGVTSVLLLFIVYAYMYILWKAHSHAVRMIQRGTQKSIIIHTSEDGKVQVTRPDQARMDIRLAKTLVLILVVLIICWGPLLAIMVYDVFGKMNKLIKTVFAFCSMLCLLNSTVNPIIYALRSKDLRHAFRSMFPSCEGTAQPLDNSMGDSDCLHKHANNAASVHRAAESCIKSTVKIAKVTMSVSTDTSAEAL

Row | Structure (SMILES) | Emax ([1]; filed as inverse agonist) | Emax [2] | Ratio ([3]; filed as inverse agonist) | pEC50 [4] | EC50 [5] | pEC50 [6] | EC50 [7] | Ki [8] | Ratio [9] | Ratio Ki [10] | Ki [11] | Emax [1] | pEC50 ([7]; time hrs <=1) | Emax ([7]; time hrs <=1) | Ratio [3] | pEC50 ([5]; time 7.0 hrs)
1 | Cc1cccc(-c2c(O)cc(C(=O)c3ccccc3)cc2O)c1 | 40.3% | inactive | 2.3 | inactive | > 10 µM | inactive | 1.66 µM | 4.01 µM | inactive | 12.6 | 0.32 µM | – | – | – | – | –
2 | O=C(c1cc(O)c(-c2ccncc2)c(O)c1)c1cccs1 | – | inactive | – | inactive | – | – | – | > 10 µM | – | – | > 10 µM | inactive | inactive | – | – | –
3 | O=C(c1ccccc1)c1cc(O)c(-c2cc(F)cc(F)c2)c(O)c1 | 63% | inactive | 2.22 | inactive | 8.91 µM | inactive | 1.7 µM | 1.08 µM | inactive | 0.66 | 1.63 µM | – | – | – | – | –
4 | O=C(c1cc(O)c(-c2cc(Cl)ccc2Cl)c(O)c1)c1cccs1 | 61% | inactive | 1.46 | inactive | > 10 µM | inactive | 0.141 µM | > 10 µM | inactive | > 22.4 | 0.447 µM | – | – | – | – | –
5 | O=C(c1ccccc1)c1cc(O)c(-c2cc(Cl)cc(Cl)c2)c(O)c1 | 54.8% | inactive | 0.66 | inactive | – | inactive | – | – | inactive | 39.4 | – | – | – | – | – | –
6 | O=C(c1ccccc1)c1cc(O)c(-c2ccoc2)c(O)c1 | – | inactive | – | inactive | – | – | 2.75 µM | > 10 µM | – | > 7.53 | 1.33 µM | -18.5% | – | – | – | –
7 | Cc1cccc(-c2c(O)cc(C(=O)c3cccs3)cc2O)c1 | 51.7% | inactive | 2.68 | inactive | 6.17 µM | inactive | 0.2 µM | 9.53 µM | inactive | 9.77 | 0.975 µM | – | – | – | – | –
8 | O=C(c1cc(O)c(-c2cc(C(F)(F)F)cc(C(F)(F)F)c2)c(O)c1)c1cccs1 | 49.7% | inactive | 0.94 | inactive | 1.29 µM | inactive | 0.676 µM | 3.74 µM | inactive | 20 | 0.187 µM | – | – | – | – | –
9 | O=C(c1ccccc1)c1cc(O)c(-c2cc(Cl)ccc2Cl)c(O)c1 | 66.5% | inactive | 1.03 | inactive | 6.03 µM | inactive | 0.363 µM | > 10 µM | inactive | > 42.9 | 0.233 µM | – | – | – | – | –
10 | O=C(c1ccccc1)c1cc(O)c(-c2cccc(CO)c2)c(O)c1 | – | inactive | – | inactive | – | – | – | > 10 µM | – | > 4 | 2.49 µM | inactive | inactive | – | – | –
11 | O=C(c1ccccc1)c1cc(O)c(-c2ccnc(Cl)c2)c(O)c1 | – | inactive | – | inactive | – | – | – | > 10 µM | – | – | > 10 µM | inactive | inactive | – | – | –
12 | O=C(c1ccccc1)c1cc(O)c(-c2ccc3c(c2)OCCO3)c(O)c1 | 49% | inactive | – | inactive | – | – | 4.9 µM | > 10 µM | – | > 2.11 | 4.74 µM | – | – | – | – | –
13 | Cc1ccc(Cn2nc(C(=O)N[C@@H]3C(C)(C)[C@@H]4CC[C@@]3(C)C4)cc2-c2ccc(Cl)c(C)c2)cc1 | – | – | – | – | – | inactive | – | – | – | – | – | – | – | – | – | –
14 | O=C(c1ccccc1)c1cc(O)c(-c2ccncc2)c(O)c1 | – | inactive | – | inactive | – | – | – | > 10 µM | – | – | > 10 µM | inactive | inactive | – | – | –
15 | O=C(c1ccccc1)c1cc(O)c(-c2ccnc(F)c2)c(O)c1 | – | inactive | – | inactive | – | – | – | > 10 µM | – | – | > 10 µM | inactive | inactive | – | – | –
16 | O=C(c1ccccc1)c1cc(O)c(-c2ccsc2)c(O)c1 | – | inactive | – | inactive | – | – | – | > 10 µM | – | – | > 10 µM | inactive | inactive | – | – | –
17 | O=C(c1cc(O)c(-c2cccc(CO)c2)c(O)c1)c1cccs1 | – | inactive | – | inactive | – | – | – | > 10 µM | – | > 1.19 | 8.38 µM | inactive | inactive | – | – | –
18 | O=C(c1ccccc1)c1cc(O)c(-c2cccc(C(F)(F)F)c2)c(O)c1 | 66% | inactive | 1.41 | inactive | 3.47 µM | inactive | 0.24 µM | > 10 µM | inactive | > 49 | 0.204 µM | – | – | – | – | –
19 | O=C(c1ccccc1)c1cc(O)c(-c2ccc3c(c2)OCO3)c(O)c1 | – | inactive | – | inactive | – | – | – | > 10 µM | – | – | > 10 µM | inactive | – | inactive | – | –
20 | N#Cc1cc(-c2c(O)cc(C(=O)c3ccccc3)cc2O)ccc1F | 52.3% | inactive | – | inactive | – | inactive | 2.82 µM | > 10 µM | inactive | > 5.44 | 1.84 µM | – | – | – | inactive | inactive
21 | O=C(c1ccccc1)c1cc(O)c(-c2cc(C(F)(F)F)cc(C(F)(F)F)c2)c(O)c1 | – | inactive | 0.91 | inactive | 1.41 µM | inactive | 0.372 µM | 1.9 µM | inactive | 8.86 | 0.215 µM | 22.9% | – | – | – | –
